The values that follow come from patent US20110166220A1, “DRONEDARONE FOR THE PREVENTION OF PERMANENT ATRIAL FIBRILLATION” (SANOFI-AVENTIS, priority 2008, published 2011).

Counter-ions that a name gives are not always drawn.

Assay [1] in a line: Prospective, multinational, double-blind, randomized, placebo-controlled, parallel group trial: prevention of permanent atrial fibrillation/flutter. It counts as in vivo. The following applies: of 2301 patients treated; 400 mg of base twice daily with meals, 12 to 30 months; placebo 294; Fischer's exact test p<0.001. The source says: The invention is illustrated with the data below. Efficacy of dronedarone and its pharmaceutically acceptable salts versus placebo for the prevention of permanent atrial fibrillation was provided via dronedarone hydrochloride during a prospective, multinational, double-blind, randomized, multi-center, placebo-controlled, parallel group trial.
Patients must have a history of atrial fibrillation or atrial flutter and/or may be in normal sinus rhythm or in atrial fibrillation or flutter at the time of recruitment. Recruitment of patients was conducted taking into account the following inclusion criteria:
1) One of the following risk factors had to be present: • age equal to or greater than 70 years, • hypertension (taking antihypertensives of at least two different classes), • diabetes, • history of cerebral stroke (transient ischemic event or completed cerebral stroke) or of systemic embolism, • left atrial diameter greater than or equal to 50 mm measured by echocardiography, • left ventricular ejection fraction less than 40%, measured by two-dimensional echography; […]

Assay [2] in a line: Same trial: prevention of cardiovascular hospitalization or death in patients with permanent atrial fibrillation. It counts as in vivo. The protocol: The invention is illustrated with the data below. Efficacy of dronedarone and its pharmaceutically acceptable salts versus placebo for the prevention of permanent atrial fibrillation was provided via dronedarone hydrochloride during a prospective, multinational, double-blind, randomized, multi-center, placebo-controlled, parallel group trial. Study drug treatment units (placebo or dronedarone hydrochloride corresponding to 400 mg of base) were such that each patient took one tablet in the morning during or shortly after breakfast and one tablet in the evening during or shortly after dinner. The treatment duration depended on the time of recruitment of each patient in the trial and could be comprised from 12 months to 30 months. From the 4628 patients included in the trial, 2301 were part of the group treated with dronedarone hydrochloride. “Patients with permanent atrial fibrillation or flutter” means patients with a history of atrial fibrillation or atrial flutter, who were in atrial fibrillation or flutter at the time of recruitment but who had not a previous history of permanent atrial fibrillation or flutter and who stayed in permanent atrial fibrillation or flutter during all the trial. The results obtained during this trial were analyzed by the Kaplan Meier method for the figures and the relative risk (RR) was estimated using Cox's proportional effect regression model. The relative risk (RR) is the ratio of the rates of occurrence of a hospitalization or death in patients receiving dronedarone compared with patients receiving a placebo. The percentage reduction x of a given event (hospitalization, death, cardiovascular death and the like) is calculated in the following manner: x=1−relative risk. Of the 4628 patients included in the study, 2301 formed part of the group treated with dronedarone hydrochloride. […] 74 events were recorded in the placebo group against 29 in the group treated with dronedarone hydrochloride. The calculated relative risk is 0.67 with p=0.06, that is a 33% reduction in cardiovascular hospitalizations and deaths under dronedarone hydrochloride.

Consider `CCCCc1oc2ccc(NS(C)(=O)=O)cc2c1C(=O)c1ccc(OCCCN(CCCC)CCCC)cc1` [dronedarone hydrochloride, 2-n-butyl-3-[4-(3-di-n-butylaminopropoxy)benzoyl]-5-methylsulfonamido-benzofuran], for which, in assay [1], the “number of patients with permanent atrial fibrillation/flutter” value is given as 178 patients. In addition, in assay [2] (178 patients in permanent AF in treated group, placebo 74 events of 294 patients), the “events (cardiovascular hospitalization or death) recorded in patients in permanent atrial fibrillation” value stood at 29 events. Further, the “relative risk (RR) of cardiovascular hospitalization or death versus placebo” value in assay [2] (patients in permanent atrial fibrillation, Cox's proportional effect regression model, p=0.06) amounted to 0.67. In addition, the “reduction in cardiovascular hospitalizations and deaths (x=1-relative risk)” value in assay [2] (patients in permanent atrial fibrillation, versus placebo, p=0.06) is 33%.
